Measurements from patent US20200407370A1, “PEPTIDYLARGININE DEIMINASE INHIBITOR AND USE THEREOF” (Nanjing Transthera Biosciences Co., Ltd., priority 2018, published 2020).
pIC50: −log10 of the molar value. Read-outs that look alike come from different tables or passages of the source.

How the values were obtained:
[1] = target: T1, Peptidylarginine deiminase 4 (PAD4) (Homo sapiens, UniProt Q9UM07); assay: Assay of enzyme-inhibiting activity (PAD4, FAM-AcH4(1-5) peptide, Caliper detection); format: biochemical; conditions: 10 nM PAD4, 5 μM peptide, 0.1 mM Ca2+, pH 8.0
T1 construct: purchased Cayman 10500
T1 sequence (Q9UM07 whole entry): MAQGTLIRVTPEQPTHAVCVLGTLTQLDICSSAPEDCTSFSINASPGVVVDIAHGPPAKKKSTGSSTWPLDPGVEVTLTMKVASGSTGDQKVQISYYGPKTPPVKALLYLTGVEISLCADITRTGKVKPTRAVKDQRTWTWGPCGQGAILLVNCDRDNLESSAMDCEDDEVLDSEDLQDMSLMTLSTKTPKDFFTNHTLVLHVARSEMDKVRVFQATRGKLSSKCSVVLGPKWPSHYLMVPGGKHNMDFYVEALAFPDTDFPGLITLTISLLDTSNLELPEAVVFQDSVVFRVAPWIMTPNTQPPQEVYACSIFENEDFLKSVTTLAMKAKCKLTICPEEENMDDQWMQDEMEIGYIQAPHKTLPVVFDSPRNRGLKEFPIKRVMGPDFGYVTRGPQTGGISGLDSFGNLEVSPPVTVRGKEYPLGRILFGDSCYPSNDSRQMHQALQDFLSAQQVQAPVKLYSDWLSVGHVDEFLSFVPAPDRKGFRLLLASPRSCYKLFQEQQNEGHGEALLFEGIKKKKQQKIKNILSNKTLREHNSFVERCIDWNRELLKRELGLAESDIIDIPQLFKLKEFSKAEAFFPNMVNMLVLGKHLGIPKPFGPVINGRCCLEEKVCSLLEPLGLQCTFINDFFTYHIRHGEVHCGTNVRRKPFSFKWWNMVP
Experimental: Experimental Example 1: Assay of Enzyme-Inhibiting Activity of Compound
Sample: The compound disclosed herein prepared according to exemplary methods.
Peptidylarginine deiminase 4 (PAD4): Cayman, Cat. No. 10500, Lot. No. 0519694;
Carboxyfluorescein-labeled peptide (Peptide FAM-AcH4 (1-5)): GL Biochem, Cat. No. 0200046, Lot. No. P161110-TL545976;
An appropriate amount of the compound to be assayed was dissolved in DMSO to 10 mM. An appropriate amount of 10 mM mother liquor of the compound to be assayed was diluted to 1.5 mM with DMSO, and the solution was then serially diluted 3-fold with DMSO to give 50× concentrations of gradient compound solutions. Finally, 10-fold dilution was carried out with reaction buffer (an aqueous solution of 100 mM HEPES (2-[4-(2-hydroxyethyl)piperazin-1-yl]ethanesulfonic acid) containing 0.01% v/v Triton, pH 8.0) to give 5× concentrations of gradient compound solutions (150 μM, 50 μM, 16.667 μM, 5.556 μM, 1.852 μM, 0.617 μM, 0.206 μM, 0.069 μM, 0.023 μM, and 0.008 μM).
1) Reaction buffer: aqueous solution of 100 mM HEPES (2-[4-(2-hydroxyethyl)piperazin-1-yl]ethanesulfonic acid) containing 0.01% v/v Triton, pH 8.0;
2) Stop solution: aqueous solution of 100 mM HEPES (2-[4-(2-hydroxyethyl)piperazin-1-yl]ethanesulfonic acid) containing 0.015% w/v Brij-35, 0.2% v/v Coating Reagent (coating solution) #3 (PE, part no. 760050) and 50 mM EDTA, pH 8.0;
3) 2.5× enzyme solution: An appropriate amount of PAD4 was diluted to 2.5× (final concentration: 10 nM) with reaction buffer;
4) 2.5× polypeptide solution: An appropriate amount of carboxyfluorescein -labeled peptide (FAM-AcH4(1-5) peptide) and CaCl2) solution was diluted to 2.5× (the final concentration of polypeptide: 5 μM, the final concentration of Ca^2+: 0.1 mM) with reaction buffer.
5 μL of 5× compound solutions or solvents with different concentrations were added to a 384-well plate, 10 μL of 2.5× enzyme solution was then added, and the plate was incubated at room temperature for 10 min. 10 μL of 2.5× polypeptide solution was then added to each well, and the plate was incubated at 28° C. for a certain period of time. 25 μL of stop solution was added to stop reaction. Caliper was used for detection. The inhibition rate was calculated according to the following formula:
Inhibition percentage=(max−transformation)/(max−min)*100.
“max” denotes DMSO control; and “min” denotes low control.

[2] = Pharmacokinetics (PK) of the compound in rats; format: in vivo; conditions: rat, plasma, SD rats; for bioavailability / AUC(0-t) / clearance / Vd / half-life: n = 3; for bioavailability: read-out: F (absolute bioavailability); for clearance: read-out: Cl_obs iv (clearance) (converted); for Vd: read-out: Vz_obs iv (apparent volume of distribution); for Tmax: n = 3, median, read-out: Tmax po (time to maximum plasma concentration)
Experimental: Experimental Example 3: Pharmacokinetics (PK) of the Compound in Rats
The test compound was dissolved in a mixture of 5% v/v DMSO+20% v/v (30% v/v solutol (polyethylene glycol-15 hydroxystearate purchased from BASF, batch no. 84773247G0))+75% v/v brine to prepare a solution, which was then administered to SD rats by oral gavage at a dose of 5.0 mg/kg. Blood samples were collected at 15 min, 30 min, 1 h, 2 h, 4 h, 6 h, 8 h and 24 h.
The test compound was dissolved in a mixture of 5% v/v DMSO+20% v/v (30% v/v solutol)+75% v/v brine to prepare a solution, which was administered to SD rats by intravenous bolus at a dose of 1 mg/kg. Blood samples were collected at 5 min, 15 min, 30 min, 1 h, 2 h, 4 h, 6 h, 8 h and 24 h.
The animals were fixed, with tails warmed in a water bath 10 min before each sampling time point. About 100 μL of blood was collected via the tail vein, and the blood samples were collected in anticoagulation tubes containing EDTA-K2. The blood samples were centrifuged at 8,000 rpm for 6 min at 4° C. to give plasma samples within 30 min after collection. The plasma samples were stored in a refrigerator at −80° C. before test.
The sample was taken out from the −80° C. refrigerator, and vortexed for 5 min after naturally thawed at room temperature. 20 μL of plasma sample was pipetted into a 1.5 mL centrifuge tube, and 200 μL of 100 ng/mL internal standard working solution (a solution of tolbutamide in methanol) was added. The resulting mixture was mixed, vortexed for 5 min, and then centrifuged at 12,000 rpm for 5 min. 50 μL of the supernatant was pipetted into a 96-well plate with 150 μL of water per well, and the plate was vortexed for 5 min before LC-MS/MS analysis.
The concentration was calculated by Analyst 1.6.3 from AB Sciex. Parameters such as mean, standard deviation and coefficient of variation (excluding those output directly by Analyst 1.6.3) were calculated by Microsoft Excel. PK parameters were calculated by Pharsight Phoenix 6.1 software NCA (Tmax was in median).

[3] = IV 1 mg/kg, read-out: AUClast iv (area under concentration-time curve 0-24 h)
[4] = IV 1 mg/kg, read-out: tz1/2 iv (terminal half-life) (converted)
[5] = PO 5 mg/kg, read-out: AUClast po (area under concentration-time curve 0-24 h)
[6] = PO 5 mg/kg, read-out: tz1/2 po (terminal half-life) (converted)

| Structure (SMILES) | pIC50 [1] | bioavailability ([2]; IV 1 mg/kg, PO 5 mg/kg) | AUC(0-t) [2, 3] | clearance ([2]; IV 1 mg/kg) | Vd ([2]; IV 1 mg/kg) | half-life [2, 4] | Tmax ([2]; PO 5 mg/kg) | AUC(0-t) [2, 5] | half-life [2, 6] |
| --- | --- | --- | --- | --- | --- | --- | --- | --- | --- |
| CCn1c(-c2nc3cc(C(=O)N4CCC[C@@H](N)C4)cc(OC)c3n2C)cc2ccsc21 [Compound 3, (R)-(3-aminopiperidin-1-yl)(2-(6-ethyl-6H-thieno[2,3-b]pyrrol-5-yl)-7-methoxy-1-methyl-1H-benzo[d]imidazol-5-yl)methanone] | 6.70 | 15.6% | 1200 ng·h/mL | 13.2 mL/min/kg | 11.2 L/kg | 9.97 h | 6 h | 934 ng·h/mL |  |
| CCn1c(-c2nc3cc(C(=O)N4CCC[C@@H](N)C4)cc(OC)c3n2C)cc2cc(C)sc21 [Compound 9, (R)-(3-aminopiperidin-1-yl)(2-(6-ethyl-2-methyl-6H-thieno[2,3-b]pyrrol-5-yl)-7-methoxy-1-methyl-1H-benzo[d]imidazol-5-yl)methanone] | 6.96 | 41.8% | 303 ng·h/mL | 43.7 mL/min/kg | 22 L/kg | 5.96 h | 6 h | 633 ng·h/mL | 6.33 h |
| COc1cc(C(=O)N2CCC[C@@H](N)C2)cc2nc(-c3cc4ccsc4n3CC3CC3)n(C)c12 [Compound 18, (R)-(3-aminopiperidin-1-yl)(2-(6-(cyclopropylmethyl)-6H-thieno[2,3-b]pyrrol-5-yl)-7-methoxy-1-methyl-1H-benzo[d]imidazol-5-yl)methanone] | 7.44 | 46.6% | 1010 ng·h/mL | 16.7 mL/min/kg | 5.64 L/kg | 3.92 h | 6 h | 2360 ng·h/mL | 3.96 h |
| COc1cc(C(=O)N2CCC[C@@H](N)C2)cc2nc(-c3cc4ccsc4n3CC(C)C)n(C)c12 [Compound 20, (R)-(3-aminopiperidin-1-yl)(2-(6-isobutyl-6H-thieno[2,3-b]pyrrol-5-yl)-7-methoxy-1-methyl-1H-benzo[d]imidazol-5-yl)methanone] | 7.24 | 71.2% | 3160 ng·h/mL | 5 mL/min/kg | 2.86 L/kg | 6.94 h | 8 h | 11200 ng·h/mL | 13.2 h |
| COc1cc(C(=O)N2CCC[C@@H](N)C2)cc2nc(-c3cc4ccsc4n3CC(F)(F)F)n(C)c12 [Compound 21, (R)-(3-aminopiperidin-1-yl)(7-methoxy-1-methyl-2-(6-(2,2,2-trifluoroethyl)-6H-thieno[2,3-b]pyrrol-5-yl)-1H-benzo[d]imidazol-5-yl)methanone] | 7.26 | 33.3% | 772 ng·h/mL | 15.3 mL/min/kg | 8.73 L/kg | 6.93 h | 8 h | 1290 ng·h/mL | 4.7 h |
| COc1cc(C(=O)N2CCC[C@@H](N)C2)cc2nc(-c3cc4ccsc4n3CC3CCC3)n(C)c12 [Compound 22, (R)-(3-aminopiperidin-1-yl)(2-(6-(cyclobutylmethyl)-6H-thieno[2,3-b]pyrrol-5-yl)-7-methoxy-1-methyl-1H-benzo[d]imidazol-5-yl)methanone] | 7.40 | 35% | 7680 ng·h/mL | 1.67 mL/min/kg | 1.76 L/kg | 14.6 h | 6 h | 13500 ng·h/mL | 12 h |
| COc1cc(C(=O)N2CCC[C@@H](N)C2)cc2nc(-c3cc4cc(C)sc4n3CC3CC3)n(C)c12 [Compound 23, (R)-(3-aminopiperidin-1-yl)(2-(6-(cyclopropylmethyl)-2-methyl-6H-thieno[2,3-b]pyrrol-5-yl)-7-methoxy-1-methyl-1H-benzo[d]imidazol-5-yl)methanone] | 7.60 | 31.2% | 887 ng·h/mL | 18 mL/min/kg | 11.6 L/kg | 7.9 h | 6 h | 1380 ng·h/mL | 7.52 h |
